Laboratory results reported in patent US20230149510A1, “METHOD FOR ALLEVIATING ARTHRITIS USING EPIDERMAL GROWTH FACTOR” (Lovin BioMed Co., Ltd., priority 2021, published 2023).

How the values were obtained:
[1] = test system: Chick type II collagen (CII)-induced rheumatoid arthritis (RA); assay: Evaluation of RA severity (visual arthritis scoring), collagen-induced RA; type: in vivo, DBA/1 mice; conditions: mice, 100 μL intraperitoneal once daily for 20 days, scored every 3 days, 21st to 42nd day, FIG. 6
Protocol: Female DBA/1 mice (8 weeks old, with a body weight of approximately 20 g) used in the following experiments were purchased from National Laboratory Animal Center, Taipei City, Taiwan. All the experimental mice were housed in an animal room under the following laboratory conditions: an alternating 12-hour light and 12-hour dark cycle, a temperature maintained at 21° C. to 23° C., and a relative humidity maintained at 45% to 60%. Furthermore, water and feed were provided ad libitum for all the experimental mice. All experimental procedures involving the experimental mice were in compliance with the legal provision of the Institutional Animal Care and Use Committee of National Chung Hsing University, Taiwan, and were carried out according to the Guide for the Care and Use of Laboratory Animals of National Institutes of Health (NIH). […]
At the end of the 21st day after the initial immunization, the pathological symptoms (i.e., erythema and edema in the sole joint, ankle, and knee joint) in the respective mouse was assessed according to the visual arthritis scoring system described in Brand D. D. et al. (2007), Nat. […] Thereafter, the abovementioned visual arthritis scoring system was performed every 3 days until the 42nd day after the initial immunization (i.e., each mouse was scored 8 times). The degree of RA severity was scored on a scale from 1 to 8. […]

[2] = test system: knee joint tissue of the hind leg, CII-induced RA; assay: Histopathologic analysis of knee joint tissue of the hind leg, collagen-induced RA; type: in vivo, DBA/1 mice; conditions: mice; for morphological observation of cartilage structure and surface: knee joint of hind leg after day 42, data not shown
Protocol: 2 mg/mL of a Chick type II collagen (CII) solution (Chondrex Inc., Cat. No. 20012) (in 10 mM acetic acid) was mixed with complete Freund's adjuvant (Sigma Aldrich, Cat. No. F5881-10ML) at a ratio of 1:1 (v/v), so as to obtain a first CII emulsion. 2 mg/mL of a Chick type CII solution was mixed with incomplete Freund's adjuvant (ChemCruzx, Cat. No. sc-24648) at a ratio of 1:1 (v/v), so as to obtain a second CII emulsion.
The female DBA/1 mice were divided into five groups, including one normal control group, one pathological control group, one comparative group, and two experimental groups (i.e., experimental groups 1 to 2) (n=6 mice in each group). 200 μL of the first CII emulsion was injected subcutaneously into the tail of the respective mouse of the pathological control group, the comparative group, and the two experimental groups. The mice were subjected to a boost injection using 200 μL of the second CII emulsion on the 21st day after the initial immunization, so as to induce the occurrence of RA. In addition, the rats of the normal control group were injected with an adjuvant solution (in PBS).
After completion of the boost injection, the respective mouse in the comparative group was intraperitoneally injected with 100 μL of 1% HA, the respective mouse in the experimental group 1 was intraperitoneally injected with 100 μL of the EGF solution (containing 20 μg/g EGF) prepared in section C of Example 1, the respective mouse in the experimental group 2 was intraperitoneally injected with 100 μL of the mixture solution (containing 20 μg/g EGF) prepared in section C of Example 1. Each mouse was administered once daily for a total period of 20 days.
After completion of the evaluation of RA severity as described in section C of this example, the mice in each group were sacrificed by virtue of 95% CO2 asphyxiation, and the knee joint tissue of the hind leg and the sole tissue were obtained from each mouse carcass. The knee joint tissue of the hind leg of each mouse was subjected to histological sectioning, hematoxylin-eosin staining, and microscopic observation in sequence according to the methods described in section F of Example 1.
Next, the pathological symptoms (i.e., inflammatory cell infiltration, synovial hyperplasia, and cartilage surface erosion) in the respective tissue section was assessed according to the method described in Deng G. M. et al. (2005), Nat Med., 11:1066-1072. The degrees of inflammatory cell infiltration, synovial hyperplasia, and cartilage surface erosion were scored on a scale from 1 to 4. The higher the scale, the higher the severity of the pathological symptom is.
The data thus obtained were analyzed according to the method described in section 1 of the “General Procedures”.

| Substance | severity of RA (visual arthritis score, scale 1 to 8) [1] | morphological observation of cartilage structure and surface [2] | scale of cartilage surface erosion (scale 1 to 4) ([2]; knee joint of hind leg, FIG. 7) | scale of inflammatory cell infiltration (scale 1 to 4) ([2]; knee joint of hind leg, FIG. 7) | scale of synovial hyperplasia (scale 1 to 4) ([2]; knee joint of hind leg, FIG. 7) |
| --- | --- | --- | --- | --- | --- |
| hyaluronic acid [HA, reference compound] | increased slowly | the cartilage structure was partially damaged, and a partially intact cartilage surface was observed |  |  |  |
| EGF: Epidermal growth factor (Cat. No. 02-108, Joycom Bio-chem) dissolved in PBS, 20 μg/g EGF; given to experimental group 1 (NSDSECPLSHDGYCLHDGVCMYIEALDKYACNCVVGYIGERCQYRDLKWWELR; UniProt P01133 971-1023, looked up) | increased slowly | the cartilage structure was partially damaged, and a partially intact cartilage surface was observed | apparently or significantly lower than those determined in the pathological control group | apparently or significantly lower than those determined in the pathological control group | apparently or significantly lower than those determined in the pathological control group |
